The results in this text go back to a melting point compilation (Tetko et al.; mined from patent text by program, amines drawn as free bases though some values may be those of a salt).

In general, melting point refers to the temperature of the solid-liquid transition.

For the compound `COc1ccc2nc(NC(=O)C(CC3CCCC3)c3ccc(S(=O)(=O)NCc4cccnc4)cc3)sc2n1` (stereo unspecified), the melting point is 227 to 229 °C.
As to `CON=C(c1ccc(F)cc1)c1ccc2[nH]c(NC(=O)OC)nc2c1`, the melting point lay within 290 to 295 °C.
The result for `C[C@@H](NC(=O)c1nc(-c2ccc(Cl)cc2)ns1)[C@](O)(Cn1cncn1)c1ccc(F)cc1F` reads 215 to 220 °C; that for `C=C1N(CC)C(=O)OC12CCN(CCC=C(c1ccc(F)cc1)c1ccc(F)cc1)CC2`, 138 to 139 °C; that for `COc1c(F)cccc1OCCN1C(=O)c2ccccc2C1=O`, 112 to 113 °C.
In turn, `CCOC(=O)C1=CCCCC1S(=O)(=O)Nn1cccc1-c1ccccc1` (stereo unspecified) displayed a melting point of 160 to 161 °C.
On to `CC(=O)Nc1cc([N+](=O)[O-])c(Cl)cc1F`, for which the melting point was in the range of 125 to 126 °C.
The result for `Cc1cc2c(cc1C)C(=O)c1c(N)cccc1C2=O` reads 222 °C; that for `O=c1ccc(-c2ccco2)n[nH]1`, 183 to 184 °C.
Under `Nc1cc(Cl)nc(C(=O)NOCc2ccc(F)cc2)c1Cl` stands 209 to 211 °C; under `C=CCNc1nc2c(c(N3CCN(C)CC3)n1)CCCN2CC=C`, 81 °C.
Compound `CC(C(=O)O)c1cccc(Sc2ccccc2F)c1O` (stereo unspecified) had a melting point of 116 to 117 °C.
The compound `CCOC[C@@H]1[C@H](c2ccc(Cl)c(Cl)c2)C[C@H]2CC[C@@H]1N2C` returned a melting point of 52.5 to 54.5 °C.
`CCCCCCCCCCCC(O)CC(=O)C(CCCCCC)C(=O)OC` (stereo unspecified) came in with a melting point of 38 to 39 °C.
Turning to `CC(C)(C)C=Cc1nn(-c2ccc(F)cc2F)c2c1C1CCC2C1` (stereo unspecified), the melting point fell in the range of 98 to 101 °C.
In turn, `O=c1cc(C(F)(F)F)cc(-c2ccc(C(F)(F)F)cc2)[nH]1` came in with a melting point of 203 to 204 °C.
Consider `O=C1c2c(c(=O)n3nc(-c4ccccc4)cc3n2Cc2ccccc2)CN1C1CCCCC1`, for which the melting point is 276 to 278 °C.
Under `COC(=O)C(=C(C)C)N1C(=O)[C@H](N2C(=O)c3ccccc3C2=O)[C@H]1Cl` stands 122 to 125 °C; under `CSCCCn1c(C)c(C(=O)c2cccc(Cl)c2Cl)c2cccc(Br)c21`, 119 °C; under `C=C(C)C(=O)OCCOc1ccc(/C=C/C(=O)OC)cc1`, 81 to 82 °C.
As to `CCOC(=O)c1ncc2[nH]c3ccc(Oc4ncccn4)cc3c2c1COC`, the melting point was in the range of 128 to 129 °C.
`Cc1nc(C(C)(O)c2nc(C)c(C)s2)sc1C` returned a melting point of 143 to 144 °C.
The result for `COc1cc(CC(=O)O)cc(OCCCc2cn(-c3ccc(C(F)(F)F)cn3)nc2C(C)C)c1` reads 109 to 110 °C; that for `CCCCc1oc2ccccc2c1C(=O)N(CC)Cc1ccc2cc(OCc3nnn[nH]3)ccc2c1`, 78 to 84 °C; that for `Cc1ccnc(N2CCN(CCc3c(C)n4c5c(cc([N+](=O)[O-])cc35)CCC4)CC2)c1`, 230 °C.
In the case of `COC[C@H]1O[C@H](ONC(=O)c2nc(-c3ccc(Cl)c(OC)c3F)cc(N)c2Cl)[C@H](OC)[C@@H](OC)[C@@H]1OC`, the melting point is 184 to 187 °C.
Under `C[C@H]1CN(c2cc3c(cc2F)c(=O)c(C(=O)O)cn3C2CC2)C[C@H]1N` (relative stereo) stands 268 to 270 °C.
Compound `CN(C)c1ccc(CNc2ccc(C(F)(F)F)cc2[N+](=O)[O-])cc1` had a melting point of 158 to 160 °C.
Under `O=c1[nH]cc(Br)cc1Nc1ccncn1` stands 150 to 151 °C; under `Cc1c(Cc2cccc(C(F)(F)F)c2F)c2ccc(Cl)c(Cl)c2n1CCCNS(C)(=O)=O`, 139 °C; under `COc1cc2cc(c1Cl)N(C)C(=O)CC(O)C1(C)OC1C(C)C1CC(O)(NC(=O)O1)C(OC)C=CC=C(C)C2` (stereo unspecified), 174 °C.
The result for `CCCCCN1C(=O)C(O)(c2ccc3c(c2)OCO3)c2cccnc21` (stereo unspecified) reads 104 to 105 °C.
The result for `Cc1ccnc2c1nc(-c1cccnc1N)n2-c1ccc(CC(=O)Nc2ccccc2)cc1` reads 236 to 238 °C.
For the compound `Cc1nc(SCc2ncccc2C(=O)O)sc1CC(=O)O`, the melting point was 225 to 227 °C.
With `N#CC1=C(C2=CCNCC2)Nc2n[nH]cc2C1c1cccc(C#N)c1Br` (stereo unspecified), the melting point stood at 226 °C.
Take `CCC(=O)Nc1cccc(-c2ccnc3c(C(=O)c4cccs4)cnn23)c1`: the melting point fell in the range of 208 to 210 °C.
In turn, `CC1=C(C(=O)OCCOc2ccc(C(=O)c3ccccc3)c(O)c2)CC(C(=O)OCCOc2ccc(C(=O)c3ccccc3)c(O)c2)=C(C)N1` had a melting point of 188 °C.
Turning to `Cc1cccc(-c2cccc(CBr)n2)n1`, the melting point amounted to 88 °C.
The result for `CCCc1nc(Cl)nc(NCCO)n1` reads 87 to 88 °C; that for `COc1ccc(-c2ccc(-c3ccc(OC)cc3)c(-c3ccc(OCc4ccccc4)cc3)n2)cc1`, 99 to 102 °C; that for `CCOC(=O)C(C#N)=Cc1cc(OC)c(OC)c2c1C=CCO2`, 104 to 108 °C.
`Cc1c(C=CC=O)c2c(c(C)c1OCc1ccccc1)CC(C)(C)O2` gave a melting point of 108 to 109 °C.
`CCOC(=O)c1cccc2nc(OCC)n(Cc3ccc(-c4ccccc4-c4nnn[nH]4)cc3)c12` registered a melting point of 158 to 159 °C.
The result for `COC(=O)c1cc(-c2nccs2)cc2c1OC(c1ccccc1)(c1ccccc1)O2` reads 154 to 155 °C; that for `CSC[C@H](C)NC(=O)c1c(OC(F)(F)F)cccc1C(=O)Nc1ccc(Cn2nc(C(F)(F)F)cc2C(F)(F)F)cc1C`, 158 to 160 °C.
With `O=C(O)Cn1cnc2c(NC3CCCCC3)nc(NCc3ccc(C4CCCCC4)cc3)nc21`, the melting point lay within 172 to 179 °C.
`O=C1NC(=S)NC(=O)C1=Cc1ccc[nH]1`: the melting point came to 280 °C.
The result for `CC(=O)NC(=O)CCc1ccc(OCCc2nc(-c3ccccc3)oc2C)cc1` reads 128 to 129 °C.
The result for `C=CCOc1cc(NC(=O)C2CCCCC2C(=O)OCC)c(F)cc1Cl` (stereo unspecified) reads 52 to 53 °C.
The result for `CC(C)c1nc(COCc2ccccc2)n(CC2CC2)c1Sc1cc(Cl)cc(Cl)c1` reads 120 to 121 °C; that for `CC(N)C(=O)Nc1cc(OCC(F)(F)F)ccc1-c1ccccn1` (stereo unspecified), 85 to 86 °C; that for `CN1C(=O)C(NC(=O)Nc2cccc(Cl)c2)N=C(c2ccccc2)c2ccccc21` (stereo unspecified), 178 to 180 °C.
On to `CCN(C)C(=O)c1cnn(C)c1C(=O)Nc1ccn2nc(N3CCOCC3)nc2c1`, for which the melting point is 201 to 203 °C.
The result for `CCn1cc(CN(C(=O)C2CCc3c(O)cccc32)c2ccc(C(C)C)cc2)cn1` (stereo unspecified) reads 205 to 206 °C.
Under `O=C(Cl)c1ccc(CBr)cc1` stands 56 to 58 °C; under `CN(C)c1ccc(/C=C/c2c(F)cc(F)cc2F)cc1`, 127 to 128 °C; under `Cc1oc(-c2ccc(Cl)cc2)cc1C(=O)NCc1ccc2cc(OCC(=O)O)ccc2c1`, 177 to 181 °C.
Under `OCc1cc2cc(-c3ccccc3)ccc2[nH]1` stands 115 to 116 °C.
In the case of `COC(=O)C(C)N(C(=O)CCl)c1c(C)cccc1C` (stereo unspecified), the melting point lay within 92 to 94 °C.
`O=S1CCc2nn(-c3ccc(Cl)cc3F)c(Cl)c2C1` (stereo unspecified) registered a melting point of 119 to 122 °C.
For the compound `CCCCC1C(C(=O)/C=C/c2ccc(OC)cc2)C(=O)CC(c2ccc(OC)cc2)C1[N+](=O)[O-]` (stereo unspecified), the melting point is 127 to 129 °C.
